Source: publication PMC12197642 (Viruses, 2025)

Experiments:
FMDV 2C helicase = FMDV 2C helicase (Foot-and-mouth disease virus serotype O, UniProt P03305); assay type: biochemical
[1] = test system: FMDV serotype O strain O/China; test: microbe, parasite or virus in culture; assay type: cell-based, foot-and-mouth disease virus (FMDV)
[2] = test system: FMDV serotype O strain O/China; assay type: cell-based, foot-and-mouth disease virus (FMDV)
in vitro = details: hamster
[3] = test system: FMDV serotype O strain O/China; assay type: cell-based, foot-and-mouth disease virus (FMDV); remark: listed apart in the source
picornaviral 2C = details: cited from earlier work
[4] = Foot-and-mouth disease virus, BHK-21, read-out: reduction of viral plaque formation (inhibitory efficacy)

Chain of FMDV 2C helicase (P03305 1108-1425 limits assumed): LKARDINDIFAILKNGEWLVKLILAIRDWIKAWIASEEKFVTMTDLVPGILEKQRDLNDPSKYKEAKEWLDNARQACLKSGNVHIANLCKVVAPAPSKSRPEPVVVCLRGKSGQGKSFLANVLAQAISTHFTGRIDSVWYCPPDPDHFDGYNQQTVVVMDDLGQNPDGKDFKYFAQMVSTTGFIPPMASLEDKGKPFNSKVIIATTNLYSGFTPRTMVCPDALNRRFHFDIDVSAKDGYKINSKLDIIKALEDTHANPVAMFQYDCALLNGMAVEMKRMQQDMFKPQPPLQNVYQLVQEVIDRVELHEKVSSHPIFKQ

| SMILES | inhibition type (FMDV 2C helicase) | viability at 500 µM (in vitro) [%] | CC50 (in vitro) [µM] | further results |
| --- | --- | --- | --- | --- |
| Cc1cccc[n+]1[O-] [Compound C1, 2-methylpyridine 1-oxide] | mixed inhibition | > 50 |  | concentration achieving effective FMDV suppression [1]: 400 µM; reduction of viral plaque formation [1]: 90.2%; inhibition at 200 µM [1, 4]: 97.3%; inhibition at 400 µM [1, 4]: 99.8%; antiviral activity by indirect immunofluorescence [2]: superior viral replication suppression |
| Sc1cnn[nH]1 [Compound C2, 1H-1,2,3-triazole-5-thiolate] | competitive inhibition | > 50 | 1330 |  |
| Oc1ccccn1 [Compound C3, pyridin-2-ol] | competitive inhibition | > 50 | 852 |  |
| COc1ccc2c(c1)cc1n2CCN2CCCN=C12 [Compound C4, 11-methoxy-3,4,6,7-tetrahydro-2H-pyrimido[2′,1′:3,4]pyrazino[1,2-a]indole] | mixed inhibition |  | 284 | concentration achieving effective FMDV suppression [1]: 160 µM; inhibition rate (plaque assay) [1]: 99.7%; antiviral activity by indirect immunofluorescence [2]: superior viral replication suppression; suppression of FMDV RNA levels [3]: significantly outperformed 2-MPO |
| COc1cccc2c1NC(=O)C(Cl)(Cl)C2=O [Compound C5, 3,3-dichloro-8-methoxy-2,4(1H,3H)-quinolinedione] | noncompetitive inhibition |  | 127 |  |
| O=C1C=CC2(C=C1)OC(=O)c1ccccc1O2 [Compound C6, Spiro (4H-[1,3]benzodioxine-2,4′-[2,5]cyclohexadiene)-1′,4-dione] | noncompetitive inhibition |  | 3 |  |
| Cl.N=C(N)N [Guanidine hydrochloride] |  |  |  | effect on helicase and ATPase activities (picornaviral 2C): suppresses helicase and ATPase activities |
